{"source": "patent US20260000698A1", "about": "(priority 2022, published 2026)", "key": {"PRMT3": {"biological_target": "T1, PRMT3 (Homo sapiens, UniProt O60678)", "T1 construct": "purchased BPS Bioscience", "T1 sequence (O60678 whole entry)": "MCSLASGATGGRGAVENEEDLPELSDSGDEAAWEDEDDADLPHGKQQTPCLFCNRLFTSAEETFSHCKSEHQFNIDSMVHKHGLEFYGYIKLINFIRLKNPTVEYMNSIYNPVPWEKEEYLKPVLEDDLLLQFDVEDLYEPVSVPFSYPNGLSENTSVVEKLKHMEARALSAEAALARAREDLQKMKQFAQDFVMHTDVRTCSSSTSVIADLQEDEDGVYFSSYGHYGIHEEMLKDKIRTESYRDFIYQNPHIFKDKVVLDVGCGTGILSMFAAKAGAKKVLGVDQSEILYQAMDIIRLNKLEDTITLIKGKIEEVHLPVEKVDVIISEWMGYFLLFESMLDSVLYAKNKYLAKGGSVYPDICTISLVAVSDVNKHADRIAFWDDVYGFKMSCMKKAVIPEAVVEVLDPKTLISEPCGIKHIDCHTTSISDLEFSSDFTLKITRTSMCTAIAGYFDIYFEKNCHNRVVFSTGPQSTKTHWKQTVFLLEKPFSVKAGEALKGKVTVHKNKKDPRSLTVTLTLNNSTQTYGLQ", "assay": "Human MTase screening: PRMT3", "type": "biochemical", "description": "(§1) Assay conditions. The human methyltransferase inhibition assays were performed at BPS Bioscience (San Diego, CA, USA). All of the enzymatic reactions were conducted in duplicate at room temperature for 60-960 min in a 50 μL mixture containing proper methyltransferase assay buffer, S-adenosylmethionine (SAM), enzyme, and the test compound. These 50 μL reactions were carried out in wells of a substrate pre-coated plate. First, enzyme and inhibitor were added to assay wells and preincubated for 30 min at room temperature, then SAM was added to start the reaction. Final DMSO concentration was 1% in all reactions.\n(§2) After enzymatic reactions, the reaction mixtures were discarded and each of the wells was washed three times with TBST buffer, and slowly shaken with Blocking Buffer for 10 min. Wells were emptied, and 100 μL of diluted primary antibody was added. The plate was then slowly shaken for 60 minutes at room temperature. […] Immediately, the luminescence of the samples was measured in a BioTek Synergy™ 2 (Winooski, VT, USA) microplate reader using Gen5 software.\n(§3) Data analysis. […] The luminescence data/alpha counts were analyzed and compared. […] The percent activity in the presence of each compound was calculated according to the following equation: % activity=(C−C0)/(Ce−C0), where C=the luminescence/alpha counts in the presence of the compound."}, "METTL3/METTL14": {"biological_target": "T2, METTL3/METTL14 (Homo sapiens, UniProt Q86U44)", "T2 construct": "purchased BPS Bioscience", "T2 sequence (Q86U44 whole entry)": "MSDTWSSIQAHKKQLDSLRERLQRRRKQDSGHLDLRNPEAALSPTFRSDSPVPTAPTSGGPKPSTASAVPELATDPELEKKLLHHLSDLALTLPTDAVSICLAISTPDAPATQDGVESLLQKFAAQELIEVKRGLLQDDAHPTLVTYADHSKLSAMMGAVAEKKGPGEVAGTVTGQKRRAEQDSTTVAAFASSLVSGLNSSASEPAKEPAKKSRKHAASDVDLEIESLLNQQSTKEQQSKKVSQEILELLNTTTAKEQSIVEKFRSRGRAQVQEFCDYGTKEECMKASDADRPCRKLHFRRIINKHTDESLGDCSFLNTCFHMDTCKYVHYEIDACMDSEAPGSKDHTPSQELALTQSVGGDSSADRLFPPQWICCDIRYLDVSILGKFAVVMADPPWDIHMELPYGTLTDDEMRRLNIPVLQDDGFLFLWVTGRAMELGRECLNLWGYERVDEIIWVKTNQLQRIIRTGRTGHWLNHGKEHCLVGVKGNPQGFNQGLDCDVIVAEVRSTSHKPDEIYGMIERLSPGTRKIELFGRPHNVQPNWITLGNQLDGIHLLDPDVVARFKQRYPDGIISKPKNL", "T2 sequence (Q9HCE5 whole entry partner)": "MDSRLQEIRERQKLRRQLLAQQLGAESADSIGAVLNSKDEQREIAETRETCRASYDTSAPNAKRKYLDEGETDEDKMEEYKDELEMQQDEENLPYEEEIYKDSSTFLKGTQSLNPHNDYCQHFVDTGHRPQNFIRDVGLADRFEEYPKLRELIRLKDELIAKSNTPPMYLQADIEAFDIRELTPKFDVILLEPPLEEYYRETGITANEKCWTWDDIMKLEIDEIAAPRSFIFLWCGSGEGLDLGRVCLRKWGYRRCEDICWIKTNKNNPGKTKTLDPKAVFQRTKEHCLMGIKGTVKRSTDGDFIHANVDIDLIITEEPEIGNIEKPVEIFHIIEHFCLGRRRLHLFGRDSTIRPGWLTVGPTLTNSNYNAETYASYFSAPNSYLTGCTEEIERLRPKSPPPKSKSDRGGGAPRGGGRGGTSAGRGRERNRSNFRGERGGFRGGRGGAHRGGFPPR", "assay": "Human MTase screening: METTL3/METTL14", "type": "biochemical", "description": "as §1, §2, §3"}, "[1]": {"assay": "Plasma stability assay, human plasma", "type": "in vitro ADME", "description": "Plasma stability assay. The plasma stability assay was performed in triplicate by incubating each selected compound (1 μmol/L final concentration) in normal mouse (CD-1) or human plasma (Innovative Research; Novi, MI, USA) diluted to 80% with 0.1 mol/L potassium phosphate buffer (pH 7.4) at 37° C. At 0, 1, 3, 6, and 24 h, a 50 μL aliquot of the plasma mixture was taken and quenched with 150 μL of acetonitrile containing 0.1% formic acid. The samples were then vortexed and centrifuged at 15,000 rpm (Eppendorf centrifuge 5424R; Enfield, CT, USA) for 5 min. The supernatants were collected and analyzed by LC-MS/MS to determine the in vitro plasma half-life (t1/2)."}, "[2]": {"assay": "not given", "remark": "listed apart in the source"}, "SARS-CoV-2 Nsp14 MTase": {"biological_target": "SARS-CoV-2 Nsp14 MTase (Severe acute respiratory syndrome coronavirus 2, UniProt P0DTD1)", "assay": "biochemical", "type": "biochemical"}, "[3]": {"tested_on": "SARS-CoV-2 isolate USA-WA1/2020", "conditions": "inhibition at 50 μM"}, "DNMT1": {"biological_target": "T3, DNMT1 (Homo sapiens, UniProt P26358)", "T3 construct": "purchased BPS Bioscience", "T3 sequence (P26358 whole entry)": "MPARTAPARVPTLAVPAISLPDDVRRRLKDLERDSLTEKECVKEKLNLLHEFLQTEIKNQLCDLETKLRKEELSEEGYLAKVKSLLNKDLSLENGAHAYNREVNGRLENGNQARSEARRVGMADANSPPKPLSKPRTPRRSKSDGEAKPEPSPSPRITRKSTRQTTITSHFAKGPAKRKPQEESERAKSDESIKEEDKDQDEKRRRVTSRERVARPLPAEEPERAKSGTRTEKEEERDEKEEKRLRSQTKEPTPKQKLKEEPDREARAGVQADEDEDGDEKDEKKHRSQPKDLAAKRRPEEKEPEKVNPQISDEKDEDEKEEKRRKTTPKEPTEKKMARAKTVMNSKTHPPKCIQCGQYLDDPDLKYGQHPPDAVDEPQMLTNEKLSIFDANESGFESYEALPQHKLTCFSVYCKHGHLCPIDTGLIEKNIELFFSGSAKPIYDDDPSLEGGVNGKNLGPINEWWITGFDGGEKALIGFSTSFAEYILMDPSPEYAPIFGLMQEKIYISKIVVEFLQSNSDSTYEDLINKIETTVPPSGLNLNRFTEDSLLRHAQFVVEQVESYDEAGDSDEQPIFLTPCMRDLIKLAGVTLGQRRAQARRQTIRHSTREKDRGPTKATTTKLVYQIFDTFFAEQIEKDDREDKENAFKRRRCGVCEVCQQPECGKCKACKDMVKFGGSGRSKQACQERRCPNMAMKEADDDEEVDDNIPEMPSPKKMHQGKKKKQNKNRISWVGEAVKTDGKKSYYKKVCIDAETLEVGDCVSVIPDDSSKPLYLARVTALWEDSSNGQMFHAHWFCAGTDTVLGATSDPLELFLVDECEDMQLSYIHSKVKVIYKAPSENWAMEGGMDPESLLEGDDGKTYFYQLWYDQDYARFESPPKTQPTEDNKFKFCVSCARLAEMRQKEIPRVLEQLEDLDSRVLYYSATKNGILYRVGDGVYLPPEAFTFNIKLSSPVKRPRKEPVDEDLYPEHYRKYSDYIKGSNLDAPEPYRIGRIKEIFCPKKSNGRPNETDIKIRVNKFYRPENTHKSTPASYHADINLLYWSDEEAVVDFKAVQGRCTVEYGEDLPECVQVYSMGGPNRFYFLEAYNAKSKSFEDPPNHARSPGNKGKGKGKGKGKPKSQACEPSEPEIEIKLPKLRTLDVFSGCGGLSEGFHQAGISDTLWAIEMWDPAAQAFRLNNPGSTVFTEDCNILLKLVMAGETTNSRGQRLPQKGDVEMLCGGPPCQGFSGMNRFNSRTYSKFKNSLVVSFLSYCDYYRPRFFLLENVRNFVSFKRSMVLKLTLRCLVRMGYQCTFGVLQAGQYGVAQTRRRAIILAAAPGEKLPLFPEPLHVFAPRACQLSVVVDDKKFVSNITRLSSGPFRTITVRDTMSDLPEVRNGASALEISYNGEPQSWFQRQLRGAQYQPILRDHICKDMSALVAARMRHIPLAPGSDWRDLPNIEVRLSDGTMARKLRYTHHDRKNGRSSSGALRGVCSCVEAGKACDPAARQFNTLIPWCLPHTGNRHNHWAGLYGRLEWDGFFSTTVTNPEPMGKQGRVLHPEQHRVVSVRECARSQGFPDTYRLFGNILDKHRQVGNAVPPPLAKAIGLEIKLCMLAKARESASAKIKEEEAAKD", "assay": "Human MTase screening: DNMT1", "type": "biochemical", "description": "as §1, §2, §3"}, "[4]": {"assay": "Parallel artificial membrane permeability assay (PAMPA)", "type": "in vitro ADME", "description": "Parallel artificial membrane permeability assay (PAMPA).^5 The membrane permeability of selected compounds was evaluated using the Corning® BioCoat™ Pre-coated PAMPA Plate System (Corning 353015; Glendale, AZ, USA). The pre-coated plate assembly, which was stored at −20° C., was taken to thaw for 30 min at room temperature. The permeability assay was carried out in accordance with the manufacturer's protocol. Briefly, the 96-well filter plate, pre-coated with lipids, was used as the permeation acceptor and a matching 96 well receiver plate was used as the permeation donor. Compound solutions were prepared by diluting the 10 mmol/L DMSO stock solutions with 10% methanol in DPBS to a final concentration of […]. The compound solutions were added to the wells (300 μL/well) of the receiver plate and DPBS with 10% methanol was added to the wells (200 μL/well) of the pre-coated filter plate. The filter plate was then coupled with the receiver plate and the plate assembly was incubated at 25° C. without agitation for 5 h. At the end of the incubation, the plate was separated and the final concentrations of compounds in both donor wells and acceptor wells were analyzed using LC-MS/MS. Permeability of a compound was calculated using the Eq. (1):\nwhere A=filter area (0.3 cm^2), VD=donor well volume (0.3 mL), VA=acceptor well volume (0.2 mL), t=incubation time (seconds), CA(t)=compound concentration in acceptor well at time t, CD(t)=compound concentration in donor well at time t, and Ceq was calculated using the Eq. (2): […]\nA cutoff criterion of Pe value at […] was used to classify the compounds into high and low permeability according to the literature report of this PAMPA plate system^1."}, "DNMT3A/DNMT3L": {"biological_target": "T4, DNMT3A/DNMT3L (Homo sapiens, UniProt Q9Y6K1)", "T4 construct": "purchased BPS Bioscience", "T4 sequence (Q9Y6K1 whole entry, looked up)": "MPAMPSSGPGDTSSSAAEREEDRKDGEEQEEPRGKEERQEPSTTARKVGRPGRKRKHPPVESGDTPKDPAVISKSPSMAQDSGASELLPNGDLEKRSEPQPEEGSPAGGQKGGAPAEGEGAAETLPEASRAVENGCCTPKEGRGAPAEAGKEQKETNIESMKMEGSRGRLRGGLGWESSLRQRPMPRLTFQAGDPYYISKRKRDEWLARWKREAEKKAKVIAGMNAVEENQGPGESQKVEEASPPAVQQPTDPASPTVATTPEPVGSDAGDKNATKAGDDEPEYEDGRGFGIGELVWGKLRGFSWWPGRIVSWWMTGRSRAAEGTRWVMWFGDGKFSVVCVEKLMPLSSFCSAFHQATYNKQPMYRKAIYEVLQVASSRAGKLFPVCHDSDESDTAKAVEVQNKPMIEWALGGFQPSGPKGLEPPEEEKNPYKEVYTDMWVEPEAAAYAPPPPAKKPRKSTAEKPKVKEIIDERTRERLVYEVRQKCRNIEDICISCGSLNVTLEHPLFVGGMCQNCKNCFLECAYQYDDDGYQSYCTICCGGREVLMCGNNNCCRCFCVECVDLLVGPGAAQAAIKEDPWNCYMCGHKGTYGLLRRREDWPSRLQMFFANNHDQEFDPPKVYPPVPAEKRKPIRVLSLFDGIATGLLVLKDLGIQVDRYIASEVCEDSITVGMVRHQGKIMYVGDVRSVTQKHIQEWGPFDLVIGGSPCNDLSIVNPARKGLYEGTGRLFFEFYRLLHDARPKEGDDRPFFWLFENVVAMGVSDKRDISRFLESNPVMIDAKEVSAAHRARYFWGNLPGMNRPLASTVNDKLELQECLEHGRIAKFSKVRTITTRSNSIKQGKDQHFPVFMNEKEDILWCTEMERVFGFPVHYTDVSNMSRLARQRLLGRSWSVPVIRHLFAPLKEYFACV", "T4 sequence (Q9UJW3 whole entry partner)": "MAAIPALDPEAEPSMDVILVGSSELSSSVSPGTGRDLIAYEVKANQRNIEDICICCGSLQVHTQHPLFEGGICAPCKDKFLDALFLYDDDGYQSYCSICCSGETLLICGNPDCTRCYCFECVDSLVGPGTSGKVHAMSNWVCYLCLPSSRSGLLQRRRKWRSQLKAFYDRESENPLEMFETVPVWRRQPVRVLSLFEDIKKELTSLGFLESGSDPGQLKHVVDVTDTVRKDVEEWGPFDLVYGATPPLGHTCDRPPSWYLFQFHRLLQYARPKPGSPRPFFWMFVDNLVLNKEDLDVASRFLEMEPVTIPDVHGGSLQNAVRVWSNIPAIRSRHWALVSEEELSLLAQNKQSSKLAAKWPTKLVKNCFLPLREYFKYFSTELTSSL", "assay": "Human MTase screening: DNMT3A/DNMT3L", "type": "biochemical", "description": "as §1, §2, §3"}, "PRMT1": {"biological_target": "T5, PRMT1 (Homo sapiens, UniProt Q99873)", "T5 construct": "purchased BPS Bioscience", "T5 sequence (Q99873 whole entry)": "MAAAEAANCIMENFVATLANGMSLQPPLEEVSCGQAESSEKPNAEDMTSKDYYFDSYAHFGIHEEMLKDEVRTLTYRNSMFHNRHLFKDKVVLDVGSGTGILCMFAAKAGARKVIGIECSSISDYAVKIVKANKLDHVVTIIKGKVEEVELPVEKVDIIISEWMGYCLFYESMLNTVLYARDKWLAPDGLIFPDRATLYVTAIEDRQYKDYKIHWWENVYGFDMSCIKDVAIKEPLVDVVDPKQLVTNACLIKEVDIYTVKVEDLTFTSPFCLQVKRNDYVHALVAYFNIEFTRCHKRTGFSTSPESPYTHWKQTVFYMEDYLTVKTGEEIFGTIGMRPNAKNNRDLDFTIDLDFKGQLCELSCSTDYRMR", "assay": "Human MTase screening: PRMT1", "type": "biochemical", "description": "as §1, §2, §3"}, "panel of 10 human MTases": {"tested_on": "panel of 10 human MTases", "assay": "Human MTase screening, whole panel", "type": "biochemical", "conditions": "10 μM", "description": "To evaluate selectivity over human MTases, compound 3 was screened against a panel of 10 human MTases including histone lysine, protein arginine, DNA and RNA MTases. […] These preliminary results bolstered our premise that it was feasible to design selective Nsp14 MTase because of its unique structure in contrast to the canonical Rossmann fold.\nas §1, with “First, enzyme and inhibitor were added to assay wells and preincubated for 30 min at room temperature, then SAM was added to start the reaction. Final DMSO concentration was 1% in all reactions.” left out\nas §2, with “min.” for “min. Wells were emptied, and 100 μL of diluted primary antibody was added. The plate was then slowly shaken for 60 minutes at room temperature.”\nas §3"}}, "note": "Marks after values point to notes of the source that are not given here."}
{"smiles": "Nc1ncnc2c1ncn2[C@@H]1O[C@H](CNS(=O)(=O)c2ccc3ccccc3c2)[C@@H](O)[C@H]1O", "note": "[Compound 3, N-(((2R,3S,4R,5R)-5-(6-Amino-9H-purin-9-yl)-3,4-dihydroxytetrahydrofuran-2-yl)methyl)naphthalene-2-sulfonamide]", "values": [{"measurement": "stability in human liver S9 fractions", "result": "resistant to phase I and II transformations"}, {"measurement": "inhibition at 10 µM", "setting": "PRMT3", "result": 0, "unit": "%"}, {"measurement": "inhibition at 10 µM", "setting": "METTL3/METTL14", "result": 10, "unit": "%"}, {"measurement": "Plasma Stability t1/2, Human", "setting": "[1]; human plasma, 37° C., n = 3", "result": ">24^d h"}, {"measurement": "stability in human plasma", "setting": "[1]; human, plasma", "result": "remarkably stable"}, {"measurement": "stability in mouse liver S9 fractions", "setting": "[2]", "result": "resistant to phase I and II transformations"}, {"measurement": "IC50", "setting": "SARS-CoV-2 Nsp14 MTase; LC-MS/MS assay, read-out: IC50", "result": 61, "unit": "nM"}, {"measurement": "fold more active than compound 1", "setting": "SARS-CoV-2 Nsp14 MTase; MTase IC50 vs compound 1", "result": "> 150", "unit": "fold"}, {"measurement": "EC50: NA (not active)", "setting": "[3]", "result": "NA^a (NA, not active, <15% inhibition at 50 μM.)"}, {"measurement": "inhibition at 10 µM", "setting": "DNMT1", "result": 5, "unit": "%"}, {"measurement": "passive diffusion rate in PAMPA", "setting": "[4]; PAMPA", "result": "equally low"}, {"measurement": "PAMPA Permeability Pe", "setting": "[4]; n = 6, mean±SD, 25° C., 5 h", "result": "0.2 ± 0.1 10^−6 cm/s"}, {"measurement": "inhibition at 10 µM", "setting": "DNMT3A/DNMT3L", "result": 4, "unit": "%"}, {"measurement": "inhibition at 10 µM", "setting": "PRMT1", "result": 5, "unit": "%"}, {"measurement": "inhibition of a panel of 10 human MTases", "setting": "panel of 10 human MTases", "result": "minimal inhibition"}]}
